This note sets out measurements from paper PMC11758220, “Identification of a Privileged Scaffold for Inhibition of Sterol Transport Proteins through the Synthesis and Ring Distortion of Diverse, Pseudo-Natural Products” (ACS Central Science, 2025).

Data set [1] can be described thus: Stability test of spirooxepinoindole in DMSO and FP assay buffer (LC-LRMS). The class given is physicochemical. The procedure: Stability test of spirooxepinoindole
The stability of the spirooxepinoindoles in dimethyl sulfoxide and in the assay buffer was tested to be […]
A sample in the FP assay buffer was prepared from the dimethyl sulfoxide stock solution of compound 15b. The dimethyl sulfoxide stock solution was prepared 2021.12.10, and the sample in the assay buffer was prepared 2022.09.28. The samples were monitored by LC-LRMS over time to look for degradation. Both acidic and basic LC-LRMS runs were used since acidic conditions could catalys e the re-condensation of potential hydrolysed spirooxepinoindoles.
Sample: Compound 15b in FP assay buffer: 20 mM HEPES, 300 mM NaCl, 0.01 %v/v Tween -20, 0.5 %v/v glycerol, 2 mM DTT. Concentration: 1.7 mM.
Figure S6: LC-LRMS trace of the stability test of spirooxepinoindole 15b in FP assay buffer measured using the acidic run. (a) UV chromatogram after zero hours, (b) UV chromatogram after four hours, (c) UV chromatogram after 20 hours, (d) MS spectrum.
LC-LRMS (ESI+) m/z: 332.0 found for [M+H]+ for 15b, 332.1 calcd. For C17H19BrNO+. […]
Figure S7: LC-LRMS trace of the stability test of spirooxepinoindole 15b in FP assay buffer measured using the basic run. (a) UV chromatogram after zero hours, (b) UV chromatogram after four hours, (c) UV chromatogram […]
for 20 hours showing no sign of degradation (Figure S6 and Figure S7). […]

A further data set addresses T1, Aster-A (Homo sapiens, UniProt Q96CP6).
T1 construct: Aster-A(359-547); GST (PreScission-cleavable) (N, cleaved yes); made in house; host or cells: E. coli OverExpress C41
T1 sequence (Q96CP6 359-547): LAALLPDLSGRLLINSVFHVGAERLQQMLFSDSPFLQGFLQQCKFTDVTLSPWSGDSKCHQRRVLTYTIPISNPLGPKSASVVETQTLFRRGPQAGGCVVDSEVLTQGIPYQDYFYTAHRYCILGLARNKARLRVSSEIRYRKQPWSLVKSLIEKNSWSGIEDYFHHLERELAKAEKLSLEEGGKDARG
Put plainly: Microplate-based cholesterol transfer assay between liposomes (FRET). The class given is biochemical. The note with it: Aster-A 125 nM, compound 10 μM, FRET with Rh-DHPE.

Consider `C[C@]12CC[C@@H]3C[C@H]1CC[C@@]21C(=Nc2ccc(Br)cc21)O3` (racemic) [Compound 15b], for which, in data set [1] (20 mM HEPES, 300 mM NaCl, 0.01 %v/v Tween-20, 0.5 %v/v glycerol, 2 mM DTT, 1.7 mM), the “Stability in FP assay buffer (no sign of degradation)” value came to 20 h. In addition, in data set [1] (DMSO stock solution), the “Stability in dimethyl sulfoxide (no sign of degradation)” value is on record as “several months”. As for `CC12CCC3CC1CCC21C(=Nc2ccc(N4CCOCC4)cc21)O3` (single isomer, unassigned; (-)) [(−)-19a], at Aster-A, the “Inhibition of Aster-A mediated transport of 23-BODIPY-cholesterol between synthetic liposomes” value is on record as “inhibited”.
